# Values of other authors, collected in patent US6077537A (Warner-Lambert Company, priority 1998, dated 2000).
# Details: relative to parent compound
smiles,measurement,value
Cc1ccc(C(=CCN2CCCC2)c2cccc(CCC(=O)O)n2)cc1 [propionic acid analogue of acrivastine],plasma concentration of principal active metabolite,well below those of parent compound
